{
  "source": "patent US20060074109A1",
  "about": "“Use of inhibitors of 24-hydroxylase in the treatment of cancer” (Sapphire Therapeutics, Inc., priority 2004, published 2006)",
  "key": {"24-hydroxylase": {"target": "T1, 24-hydroxylase (Homo sapiens, UniProt Q07973)", "T1 sequence (Q07973 36-514)": "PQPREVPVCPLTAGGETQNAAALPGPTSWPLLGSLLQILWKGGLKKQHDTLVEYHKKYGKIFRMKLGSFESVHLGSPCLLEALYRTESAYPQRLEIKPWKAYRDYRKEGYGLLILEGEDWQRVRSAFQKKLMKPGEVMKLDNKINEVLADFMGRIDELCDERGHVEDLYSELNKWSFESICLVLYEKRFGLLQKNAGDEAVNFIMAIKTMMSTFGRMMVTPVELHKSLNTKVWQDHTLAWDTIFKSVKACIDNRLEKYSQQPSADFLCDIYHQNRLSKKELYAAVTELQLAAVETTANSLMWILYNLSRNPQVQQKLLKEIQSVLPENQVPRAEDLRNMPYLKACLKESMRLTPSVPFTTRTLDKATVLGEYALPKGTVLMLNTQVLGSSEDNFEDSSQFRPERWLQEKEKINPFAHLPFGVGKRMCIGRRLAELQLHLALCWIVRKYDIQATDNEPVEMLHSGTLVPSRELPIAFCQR", "details": "Kahraman et al., J. Med. Chem. 47:6854-6863 (2004); cited from earlier work"}, "[1]": {"test_system": "AIB1 mRNA in OVCAR-3 cells", "test": "RPA of nuclear receptor coregulator mRNA", "assay_type": "cell-based, human", "details": "10 μM, 24 hour", "source_text": "Briefly, ^32P-labelled ([α-^32P]UTP, Amersham Biosciences, Buckinghamshire, UK) RNA-probes were synthesised using in vitro transcription reaction (In vitro transcription reaction kit, Pharmingen, San Diego, Calif.) using two different template sets. […] A coregulator set produces probes for NCoR (360 bp), SMRT (310 bp), pCAF (267 bp), CBP (234 bp), TIF2 (200 bp), AIB1 (179 bp), SRC-1a (145 bp) and −1e (160 bp) and p300 (127 bp); 18S (80 bp) was used as loading control with each probe set."}, "UT-OC-1 cells": {"test_system": "UT-OC-1 cells", "test": "Cell growth assay, crystal violet, 11 days", "assay_type": "cell-based, human", "details": "10 μM alone, 11 days", "description": "(§1) The human ovarian adenocarcinoma cell line, OVCAR-3 (ATCC, Manassas, Va.) was maintained, as recommended by the supplier, in RPMI 1640 medium (Sigma Aldrich, St. Louis, Mo.) supplemented with 10% FBS, 10 μg/ml insulin, 0.25% glucose and antibiotics (100 IU/ml penicillin, 100 μg/ml streptomycin). Human ovarian adenocarcinoma cell lines UT-OC-1, UT-OC-2, UT-OC-3, UT-OC-4, UT-OC-5 (Grenman, S., Engblom, P., Rantanen, V., Klemi, P. and Isola, J., “Cytogenetic Characterization of Five New Ovarian Carcinoma Cell Lines,” Acta Obstet. Gynecol. Scand., 76:83 (1997)) and SK-OV-3 and a human keratinocyte cell line HaCaT were grown in DMEM (Sigma Aldrich) with 10% FBS and antibiotics (100 IU/ml penicillin, 100 μg/ml streptomycin), and monkey kidney COS cells were maintained in DMEM/F12 (Sigma Aldrich) with 5% FBS. All cell lines were kept at 37° C. in a humidified 95% air/5% CO2 incubator.\n(§2) When OVCAR-3 cells were on the logarithmic growth phase (70% confluent) the growth assay was started. For cell growth assay, 2,000 cell/200 μl/well were plated on 96-well culture plates. […] Ethanol was used as a vehicle, and it was also included in the control. The medium containing ethanol vehicle and/or hormones were changed to a fresh one every third day. Cell growth samples were taken 0, 1, 3, 5, 7, 9 and 11 days after the treatment.\n(§3) Relative cell numbers were quantified as described previously (Kueng W, Silber E, Eppenberger U. Quantification of cells cultured on 96-well plates. Anal. Biochem., 182:16-9 (1989)). Cells were fixed on the bottom of the wells by addition of 10 μl of 11% glutaraldehyde solution in 0.1% phosphate buffer to 100 μl of medium. The plate was shaken 500 cycles/min for 15 min, washed 3 times by submersion in de-ionised water and air-dried. Fixed cells were stained with 0.1% solution of crystal violet dissolved in de-ionised water. After 20 min incubation, excess dye was removed by carefully washing with de-ionised water. The plate was air-dried prior to a bound dye solubilisation in 100 μl of 10% acetic acid. Relative cell number was given as absorbance units by measuring the optical density (590 nm) from each well using Victor 1420 multilabel counter (Wallac, Turku, Finland). Six determinations were used to calculate the mean optical density ±SD in each concentration at each time point. The absorbance value of day 0 (an overnight culture of 2,000 cells/well) was set as 0 by subtracting it from each value obtained from adjacent time-point measurements (days 1-11), and based on these values growth curves were created. Experiments were repeated 3-5 times. Day 11 was used to compare the effect of hormone treatments and 24OHase inhibitor. Statistical analyses were done using Student's t-test.\n(§4) Cell growth samples were obtained after 11 days treatment."}, "SK-OV-3 cells": {"test_system": "SK-OV-3 cells", "test": "Cell growth assay, crystal violet, 11 days", "assay_type": "cell-based, human", "details": "alone (1 or 10 μM)", "description": "as §1, §2, §3, §4"}, "UT-OC-4 cells": {"test_system": "UT-OC-4 cells", "test": "Cell growth assay, crystal violet, 11 days", "assay_type": "cell-based, human", "details": "10 μM alone, 11 days", "description": "as §1, §2, §3, §4"}, "[2]": {"test_system": "RARβ mRNA in OVCAR-3 cells", "test": "RPA and quantitative RT-PCR of receptor mRNA", "assay_type": "cell-based, human", "details": "10 μM, 24 hour", "source_text": "(§5) Briefly, ^32P-labelled ([α-^32P]UTP, Amersham Biosciences, Buckinghamshire, UK) RNA-probes were synthesised using in vitro transcription reaction (In vitro transcription reaction kit, Pharmingen, San Diego, Calif.) using two different template sets.\n(§6) RPLP0 was used as reference gene."}, "[3]": {"test_system": "RARβ mRNA in SK-OV-3 cells", "test": "RPA and quantitative RT-PCR of receptor mRNA", "assay_type": "cell-based, human", "details": "10 μM, 24 hour", "source_text": "as §5, §6"}, "[4]": {"test_system": "RARα mRNA in SK-OV-3 cells", "test": "RPA and quantitative RT-PCR of receptor mRNA", "assay_type": "cell-based, human", "details": "10 μM, 24 hour", "source_text": "as §5, §6"}, "[5]": {"test_system": "RARγ mRNA in SK-OV-3 cells", "test": "RPA and quantitative RT-PCR of receptor mRNA", "assay_type": "cell-based, human", "details": "10 μM, 24 hour", "source_text": "as §5, §6"}, "[6]": {"test_system": "RARγ mRNA in UT-OC-1 cells", "test": "RPA and quantitative RT-PCR of receptor mRNA", "assay_type": "cell-based, human", "details": "10 μM, 24 hour", "source_text": "as §5, §6"}, "[7]": {"test_system": "VDR mRNA in UT-OC-1 cells", "test": "RPA and quantitative RT-PCR of receptor mRNA", "assay_type": "cell-based, human", "details": "10 μM, 24 hour", "source_text": "as §5, §6"}},
  "data": [
    {"smiles": "C=C1/C(=C\\C=C2/CCCC3(C)C2CC[C@@H]3[C@H](C)CCS(=N)(=O)c2ccc(F)cc2)C[C@@H](O)C[C@@H]1O", "note": "(stereo partly drawn) [Formula VI]", "values": [
      {"measurement": "inhibitory potency for 24-hydroxylase", "setting": "24-hydroxylase", "result": "Only slightly less potent"}
    ]},
    {"smiles": "CC1=C(/C=C/C(C)=C\\C=C\\C(C)=C\\C(=O)O)C(C)(C)CCC1", "note": "[9-CRA, 9-cis retinoic acid]", "values": [
      {"measurement": "AIB1 expression", "setting": "[1]", "result": "171 (±5) % of ethanol-treated control"},
      {"measurement": "effect on cell growth", "setting": "UT-OC-1 cells", "result": "inhibited cell growth with equal magnitude"},
      {"measurement": "effect on cell growth", "setting": "SK-OV-3 cells", "result": "inhibited the growth of SK-OV-3 cells"},
      {"measurement": "effect on cell growth", "setting": "UT-OC-4 cells", "result": "inhibited UT-OC-4 cell growth"},
      {"measurement": "RARβ expression", "setting": "[2]", "result": "276±68 % of control"},
      {"measurement": "RARβ expression", "setting": "[3]", "result": "345±17 % of control"},
      {"measurement": "RARα expression", "setting": "[4]", "result": "195±1 % of control"},
      {"measurement": "increase of RARγ compared to control", "setting": "[5]", "result": "119±52", "unit": "%"},
      {"measurement": "up regulation of RARγ compared to control", "setting": "[6]", "result": "44±15", "unit": "%"},
      {"measurement": "VDR expression", "setting": "[7]", "result": "58±25 % of control"}
    ]},
    {"smiles": "CC1=C(/C=C/C(C)=C/C=C/C(C)=C/C(=O)O)C(C)(C)CCC1", "note": "[ATRA, all-trans-retinoic acid]", "values": [
      {"measurement": "AIB1 expression", "setting": "[1]", "result": "160 (±10) % of ethanol-treated control"},
      {"measurement": "effect on cell growth", "setting": "UT-OC-1 cells", "result": "inhibited cell growth with equal magnitude"},
      {"measurement": "effect on cell growth", "setting": "SK-OV-3 cells", "result": "inhibited the growth of SK-OV-3 cells"},
      {"measurement": "effect on cell growth", "setting": "UT-OC-4 cells", "result": "inhibited UT-OC-4 cell growth"},
      {"measurement": "RARβ expression", "setting": "[2]", "result": "214±127 % of control"},
      {"measurement": "RARβ expression", "setting": "[3]", "result": "657±30 % of control"},
      {"measurement": "RARα expression", "setting": "[4]", "result": "293±70 % of control"},
      {"measurement": "increase of RARγ compared to control", "setting": "[5]", "result": "119±19", "unit": "%"},
      {"measurement": "up regulation of RARγ compared to control", "setting": "[6]", "result": "83±66", "unit": "%"},
      {"measurement": "VDR expression", "setting": "[7]", "result": "53±11 % of control"}
    ]}
  ]
}
